{"source": "patent US9139810B2", "about": "“Method for culturing microorganisms to incorporate a substitue element” (priority 2010, dated 2015)", "key": {"E. coli K12 NBRC3301 [1]": {"system": "E. coli K12 NBRC3301", "type": "cell-based, Escherichia coli"}, "E. coli K-12 (NBRC3993)": {"system": "E. coli K-12 (NBRC3993)", "conditions": "additive (mg/mL as printed in the row) to S(−)fa medium, 37° C."}, "E. coli K12NBRC3301": {"system": "E. coli K12NBRC3301", "test": "S starvation, adaptation culture with dSi and elementary analysis of cells by ICP-MS (Example 16)", "type": "cell-based, Escherichia coli"}, "B. subtilis NBRC13719": {"system": "B. subtilis NBRC13719", "type": "cell-based, Bacillus subtilis", "conditions": "Glc(1) + Yex (0.5); day 5"}, "E. coli K12 NBRC 3301": {"system": "E. coli K12 NBRC 3301", "test": "Growth and Si content of acetone-treated cells by ICP/MS (Example 4)", "type": "cell-based, Escherichia coli", "conditions": "lac 1 + compound 5"}, "[2]": {"system": "B. subtilis Marburg NBRC13719", "test": "Growth and Si content of acetone-treated cells by ICP/MS (Example 4)", "type": "cell-based, Bacillus subtilis", "conditions": "for D 1 OD 660 nm: 22 hours; for D1ACW: acetone-treated dried cells"}, "E. coli K12 NBRC3301 [3]": {"system": "E. coli K12 NBRC3301", "conditions": "C(αC)Y medium, FIG. 1"}, "E. coli K12 NBRC3301 [4]": {"system": "E. coli K12 NBRC3301", "test": "Growth and adaptation culture in C(αC+X)Y medium with mmSi (Example 2, FIG. 2)", "type": "cell-based, Escherichia coli", "description": "A C source-limited medium (C(αC) medium) was prepared by adding a limited amount of lactate Na as C source (denoted as “αC”) to a C source-deleted C (−) medium. Escherichia coli growth was then examined using a C(αC+X) medium prepared by adding a methyl group-containing organic silicon compound mmSi (methyltrimethoxysilane (see Tables 2 and 3 for abbreviations for the compound)) to the C(αC) medium as a C source substitute compound; that is, an X-containing compound. Moreover, the effects resulting from adaptation culture were examined (specifically, after completion of the 1st (T1) culture, 2nd subculture (T2) was started in a medium of the same composition).\nC source substitute compound: X: mmSi (methyltrimethoxysilane). Culture conditions: 100 mL/Erlenmeyer flask; 33° C.; and 130 rpm. At the time of completion of the 1st culture of, a portion of the culture fluid was pipetted off. Cells were washed by centrifugation and then seeded in a medium of the same composition. The OD value at the initiation of the subculture was adjusted to be close to the initial OD value of the 1st culture generation.\nIn a manner similar to that in Example 1, E. coli K12 starter cells were grown in a GY medium, cells were washed, and then subjected to C source starvation culture. The resulting cells were seeded as starter cells in a medium. On day 2, the 1st culture (denoted as “T1d2” in FIG. 2) cells were washed and then the cells were seeded as starter cells in a medium of the same composition for 2nd subculture for adaptation. On day 2 of the 2nd subculture (T2d2), the growth was measured."}, "S. cerevisiae NBRC0268": {"system": "S. cerevisiae NBRC0268", "test": "Growth and Si content of acetone-treated cells by ICP/MS (Example 4)", "type": "cell-based, Saccharomyces cerevisiae", "conditions": "lac 3 + compound 5"}, "[5]": {"conditions": "lac 2 mg/mL + Y 0.5 mg/mL, FIG. 2"}, "[6]": {"conditions": "S(dSi)fa medium, d 3, mean of 2 to 3 flasks"}}}
{"compound": "O=BOB(O)OB(O)OB=O", "note": "[BB, Borax or sodium borate]", "values": [{"measurement": "colony count and OD value compared with medium with only limited C source", "setting": "E. coli K12 NBRC3301 [1]; C source substitute compound", "result": "increased"}, {"measurement": "OD 660 nm (d5)", "setting": "E. coli K12 NBRC3301 [1]; Lac (2) + Y, X (10), day 5", "result": 1.59}]}
{"compound": "N[C@@H](CS)C(=O)O", "note": "[L-cysteine]", "values": [{"measurement": "Amount of E. coli K12NBRC3993 growth OD660 × 10 d (cultured for 1 day)", "setting": "E. coli K-12 (NBRC3993)", "result": 0.240}]}
{"compound": "O=S(=O)([O-])[O-].[Na+].[Na+]", "note": "[Sodium sulfate, Sodium sulfate, anhydrous, reference compound]", "values": [{"measurement": "OD 660 nm", "setting": "E. coli K12NBRC3301; test 2, S(−)fa + Na2SO4 (0.2 mg/mL), d3", "result": "200 (OD 4.2)"}, {"measurement": "Amount of E. coli K12NBRC3993 growth OD660 × 10 d (cultured for 1 day)", "setting": "E. coli K-12 (NBRC3993)", "result": 0.144}]}
{"compound": "CCO[Si](C)(C)OCC", "note": "[emSi, Diethoxydimethylsilane]", "values": [{"measurement": "OD 660 nm (d5)", "setting": "B. subtilis NBRC13719", "result": 6.69}, {"measurement": "D 1 OD 660 nm", "setting": "E. coli K12 NBRC 3301; 22 hours", "result": 1.79}, {"measurement": "D1ACW", "setting": "E. coli K12 NBRC 3301; acetone-treated dried cells", "result": 203, "unit": "mg/100 mL"}, {"measurement": "D 1 OD 660 nm", "setting": "[2]; lac 1 + compound 5", "result": 2.48}, {"measurement": "D1ACW", "setting": "[2]; lac 1 + compound 5", "result": 289, "unit": "mg/100 mL"}]}
{"compound": "CCO", "note": "[ethanol]", "values": [{"measurement": "OD with ethanol equimolar to the ethyl group in emSi, compared with emSi", "setting": "E. coli K12 NBRC3301 [3]", "result": "lower than that of emSi"}]}
{"compound": "CO[Si](C)(OC)OC", "note": "[mmSi, Methyltrimethoxysilane]", "values": [{"measurement": "amount of growth in 2nd subculture versus 1st subculture", "setting": "E. coli K12 NBRC3301 [4]; adaptation culture, T2d2 vs T1d2", "result": "higher than that of the 1st subculture"}, {"measurement": "OD value compared with control (only limited amount of C source)", "setting": "E. coli K12 NBRC3301 [4]; [5]", "result": "increased"}, {"measurement": "dose dependence of increases in OD value", "setting": "E. coli K12 NBRC3301 [4]; [5]", "result": "in a dose-dependent manner"}, {"measurement": "growth on the compound alone", "setting": "E. coli K12 NBRC3301 [4]; no limited C source (rightmost in FIG. 2)", "result": "did not grow"}, {"measurement": "D 1 OD 660 nm", "setting": "[2]; lac 3 + compound 5", "result": 2}, {"measurement": "D1ACW", "setting": "[2]; lac 3 + compound 5", "result": 309, "unit": "mg/100 mL"}, {"measurement": "D 1 OD 660 nm", "setting": "S. cerevisiae NBRC0268; 22 hours", "result": 3.14}, {"measurement": "D1ACW", "setting": "S. cerevisiae NBRC0268; acetone-treated dried cells", "result": 274, "unit": "mg/100 mL"}]}
{"compound": "Sodium disilicate [dSi]", "values": [{"measurement": "OD 660 nm at end of 4th subculture of adaptation culture", "setting": "E. coli K12NBRC3301; [6]", "result": 1.93}, {"measurement": "OD 660 nm at end of 5th subculture of adaptation culture", "setting": "E. coli K12NBRC3301; [6]", "result": 3.22}, {"measurement": "OD 660 nm at end of 3rd subculture of adaptation culture", "setting": "E. coli K12NBRC3301; S(dSi)fa medium, d 7, mean of 2 to 3 flasks", "result": 1.91}, {"measurement": "OD 660 nm at end of 2nd subculture of adaptation culture", "setting": "E. coli K12NBRC3301; S(dSi)fa medium, d 9, mean of 2 to 3 flasks", "result": 2.00}, {"measurement": "OD 660 nm at end of 1st subculture of adaptation culture", "setting": "E. coli K12NBRC3301; S(dSi)fa medium, d 13, mean of 2 to 3 flasks", "result": 2.13}, {"measurement": "OD 660 nm", "setting": "E. coli K12NBRC3301; test 3, S(−)fa + Na2SO4 (0.02) + dSi (0.4 mg/mL), d3", "result": "170 (OD 6.0)"}, {"measurement": "OD 660 nm", "setting": "E. coli K12NBRC3301; test 4, S(−)fa + dSi (0.4 mg/mL), no S source, d4", "result": "190 (OD 3.0)"}]}
